In the assay the target is T1, haematopoietic prostaglandin D synthase (H-PGDS) (Homo sapiens, UniProt O60760).
T1 construct: Full length human H-PGDS cDNA (Invitrogen Ultimate ORF 10H13026) was amplified by PCR; 6-His (N); TEV protease cleavage site (N); made in house; host or cells: E. coli BL21 (DE3*), vector pET22b+
Kind of assay: H-PGDS RapidFire high throughput mass spectrometry assay (conversion of PGH2 to PGD2). The class given is biochemical. The conditions noted are these: 10 nM H-PGDS, PGH2 formed in situ by COX-2 from arachidonic acid; read-out: Potency Range (mean pIC50) (converted). Put shortly: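 RapidFire SPE–MS read-out calculated percent conversion from relative PGD2 and PGF2α (substrate surrogate) levels. Recombinant full-length human H-PGDS (His-tag, E. coli) turned over PGH2, produced in situ at ˜10 μM by human COX-2 (FLAG-tag, Sf9 cells) acting on arachidonic acid.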

Where a name gives a salt, the structure may show the parent alone. Some results are limits rather than exact numbers.

T1 sequence (O60760 whole entry): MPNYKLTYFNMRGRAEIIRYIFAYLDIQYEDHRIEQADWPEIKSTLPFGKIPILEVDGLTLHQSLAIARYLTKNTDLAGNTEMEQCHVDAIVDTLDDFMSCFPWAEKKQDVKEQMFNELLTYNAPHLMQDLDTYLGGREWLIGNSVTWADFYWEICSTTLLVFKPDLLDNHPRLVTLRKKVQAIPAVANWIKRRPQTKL

In the case of `O=C(NC1CN(c2ccccn2)C1)[C@H]1C[C@H](Oc2cccc3scnc23)C1` [Example 81, (trans)-3-(Benzo[d]thiazol-4-yloxy)-N-(1-(pyridin-2-yl)azetidin-3-yl)cyclobutanecarboxamide], the IC50 was 0.01 to 0.0794 µM.

Turning to `CN(C)c1ccnc(N2CC(NC(=O)[C@H]3C[C@H](Oc4cccc5scnc45)C3)C2)n1` [Example 75, (trans)-3-(Benzo[d]thiazol-4-yloxy)-N-(1-(4-(dimethylamino)pyrimidin-2-yl)azetidin-3-yl)cyclobutanecarboxamide], the IC50 is 0.01 to 0.0794 µM.

As for `O=C(NC1CN(CC(F)F)C1)[C@H]1C[C@H](Oc2cc(F)ccc2OC(F)F)C1` [Example 15, (trans)-N-(1-(2,2-Difluoroethyl)azetidin-3-yl)-3-(2-(difluoromethoxy)-5-fluorophenoxy)cyclobutanecarboxamide], the IC50 is 0.1 to 1 µM.

As to `O=C(NC1CN(c2ncccn2)C1)[C@H]1C[C@H](Oc2cc(F)cc3scnc23)C1` [Example 133, (trans)-3-((6-Fluorobenzo[d]thiazol-4-yl)oxy)-N-(1-(pyrimidin-2-yl)azetidin-3-yl)cyclobutanecarboxamide], the IC50 is 0.01 to 0.0794 µM.

As to `NC(=O)c1csc(NC(=O)[C@H]2C[C@H](Oc3cccc4cccnc34)C2)n1` [Example 189, 2-((trans)-3-(Quinolin-8-yloxy)cyclobutanecarboxamido)thiazole-4-carboxamide, trifluoroacetic acid salt], the IC50 is 0.01 to 0.0794 µM.

For `COc1ccc(F)cc1O[C@H]1C[C@H](C(=O)NC2CN(c3cc(C#N)ccn3)C2)C1` [Example 149, (trans)-N-(1-(4-Cyanopyridin-2-yl)azetidin-3-yl)-3-(5-fluoro-2-methoxyphenoxy)cyclobutanecarboxamide], the IC50 was < 0.01 µM.

Regarding `CS(=O)(=O)c1ccc(NC(=O)[C@H]2C[C@H](Oc3cccc4scnc34)C2)c(F)c1` [Example 247, (trans)-3-(Benzo[d]thiazol-4-yloxy)-N-(2-fluoro-4-(methylsulfonyl)phenyl)cyclobutanecarboxamide], the IC50 is 0.01 to 0.0794 µM.

Turning to `CC(N[C@H]1CC[C@H](NC(=O)N2CC(Oc3cc(F)cc4scnc34)C2)CC1)C(F)F` (mixture of isomers) [Example 142, Racemic N-((trans)-4-((1,1-Difluoropropan-2-yl)amino)cyclohexyl)-3-((6-fluorobenzo[d]thiazol-4-yl)oxy)azetidine-1-carboxamide], the IC50 is 0.01 to 0.0794 µM.

Turning to `CC(C)(O)[C@@H]1CC[C@@H](NC(=O)[C@H]2C[C@H](Oc3cccc4scnc34)C2)CO1` (racemic) [Example 51, Racemic (trans)-3-(Benzo[d]thiazol-4-yloxy)-N-((trans)-6-(2-hydroxypropan-2-yl)tetrahydro-2H-pyran-3-yl)cyclobutanecarboxamide], the IC50 is 0.01 to 0.0794 µM.

In the case of `Cc1nc2c(OC3CN(C(=O)N[C@H]4CC[C@H](C(C)(C)O)CC4)C3)cccc2s1` [Example 300, N-((trans)-4-(2-Hydroxypropan-2-yl)cyclohexyl)-3-((2-methylbenzo[d]thiazol-4-yl)oxy)azetidine-1-carboxamide], the IC50 is 1.26 to 2 µM.

As for `CC(C)(O)Cc1csc(NC(=O)[C@H]2C[C@H](Oc3cccc4cccnc34)C2)n1` [Example 209, (trans)-N-(4-(2-Hydroxy-2-methylpropyl)thiazol-2-yl)-3-(quinolin-8-yloxy)cyclobutanecarboxamide trifluoroacetic acid salt], the IC50 is 0.01 to 0.0794 µM.

On to `NC(=O)c1cnc(NC(=O)[C@H]2C[C@H](Oc3cccc4cccnc34)C2)s1` [Example 191, 2-((trans)-3-(Quinolin-8-yloxy)cyclobutanecarboxamido)thiazole-5-carboxamide], for which the IC50 is 0.01 to 0.0794 µM.

With `CS(=O)(=O)c1ccc(NC(=O)[C@H]2C[C@H](Oc3cccc4scnc34)C2)cc1` [Example 242, (trans)-3-(Benzo[d]thiazol-4-yloxy)-N-(4-(methylsulfonyl)phenyl)cyclobutanecarboxamide], the IC50 was 0.01 to 0.0794 µM.

On to `CC1(NC(=O)[C@H]2C[C@H](Oc3cc(F)cc4scnc34)C2)CN(c2ncccn2)C1` [Example 238, (trans)-3-((6-Fluorobenzo[d]thiazol-4-yl)oxy)-N-(3-methyl-1-(pyrimidin-2-yl)azetidin-3-yl)cyclobutanecarboxamide], for which the IC50 was 0.1 to 1 µM.

For `CC(C)(O)[C@H]1CC[C@H](NC(=O)[C@H]2C[C@H](Oc3cc(F)cc4ccoc34)C2)CC1` [Example 227, (trans)-3-((5-Fluorobenzofuran-7-yl)oxy)-N-((trans)-4-(2-hydroxypropan-2-yl)cyclohexyl)cyclobutanecarboxamide], the IC50 is 0.01 to 0.0794 µM.

`CC(=O)c1cnc(NC(=O)[C@H]2C[C@H](Oc3cccc4ccoc34)C2)s1` [Example 264, (trans)-N-(5-Acetylthiazol-2-yl)-3-(benzofuran-7-yloxy)cyclobutanecarboxamide]: the IC50 is 0.01 to 0.0794 µM.

For `COc1ccc(F)cc1O[C@H]1C[C@H](C(=O)N[C@H]2CC[C@H](N3CCOCC3=O)CC2)C1` [Example 151, (trans)-3-(5-Fluoro-2-methoxyphenoxy)-N-((trans)-4-(3-oxomorpholino)cyclohexyl)cyclobutanecarboxamide], the IC50 is 0.1 to 1 µM.

In the case of `O=C(N[C@H]1CC[C@H](NC(CO)C(F)(F)F)CC1)[C@H]1C[C@H](Oc2cc(F)cc3scnc23)C1` (mixture of isomers) [Example 126, Racemic (trans)-3-((6-Fluorobenzo[d]thiazol-4-yl)oxy)-N-((trans)-4-((1,1,1-trifluoro-3-hydroxypropan-2-yl)amino)cyclohexyl)cyclobutanecarboxamide], the IC50 was 0.01 to 0.0794 µM.

`O=C(NC1CN(c2ncc(CO)cn2)C1)[C@H]1C[C@H](Oc2cc(F)cc3scnc23)C1` [Example 114, (trans)-3-((6-Fluorobenzo[d]thiazol-4-yl)oxy)-N-(1-(5-(hydroxymethyl)pyrimidin-2-yl)azetidin-3-yl)cyclobutanecarboxamide]: the IC50 is 0.01 to 0.0794 µM.

On to `O=C(Nc1ncc(CO)s1)[C@H]1C[C@H](Oc2cccc3cccnc23)C1` [Example 210, (trans)-N-(5-(Hydroxymethyl)thiazol-2-yl)-3-(quinolin-8-yloxy)cyclobutanecarboxamide], for which the IC50 is 0.01 to 0.0794 µM.

Turning to `O=C(Nc1ccccn1)[C@H]1C[C@H](Oc2cccc3cccnc23)C1` [Example 183, (trans)-N-(Pyridin-2-yl)-3-(quinolin-8-yloxy)cyclobutanecarboxamide], the IC50 was 0.1 to 1 µM.

On to `CC(N[C@H]1CC[C@H](NC(=O)[C@H]2C[C@H](Oc3cc(F)ccc3OC(F)F)C2)CC1)C(F)F` (mixture of isomers) [Example 23, Racemic (trans)-3-(2-(Difluoromethoxy)-5-fluorophenoxy)-N-((trans)-4-((1,1-difluoropropan-2-yl)amino)cyclohexyl)cyclobutanecarboxamide], for which the IC50 was 0.01 to 0.0794 µM.

With `CC(C)(O)[C@H]1CC[C@H](NC(=O)[C@H]2C[C@H](Oc3cc(F)cc4scnc34)C2)CC1` [Example 140, (trans)-3-((6-Fluorobenzo[d]thiazol-4-yl)oxy)-N-((trans)-4-(2-hydroxypropan-2-yl)cyclohexyl)cyclobutanecarboxamide], the IC50 is 0.01 to 0.0794 µM.

Turning to `CCCCn1nnnc1NC(=O)[C@H]1C[C@H](Oc2cc(F)ccc2OC(F)F)C1` [Example 2, (trans)-N-(1-Butyl-1H-tetrazol-5-yl)-3-(2-(difluoromethoxy)-5-fluorophenoxy)cyclobutanecarboxamide], the IC50 is 0.01 to 0.0794 µM.

Take `CC(C)(O)[C@H]1CC[C@H](NC(=O)N2CC(Oc3cccc4sncc34)C2)CC1` [Example 299, 3-(Benzo[d]isothiazol-4-yloxy)-N-((trans)-4-(2-hydroxypropan-2-yl)cyclohexyl)azetidine-1-carboxamide]: the IC50 was 0.1 to 1 µM.

As for `CC(C)(O)c1cnc(NC(=O)[C@H]2C[C@H](Oc3cccc4ccoc34)C2)s1` [Example 265, (trans)-3-(Benzofuran-7-yloxy)-N-(5-(2-hydroxypropan-2-yl)thiazol-2-yl)cyclobutanecarboxamide], the IC50 was 0.01 to 0.0794 µM.

Consider `CC(C)(O)C1CC2(CC(NC(=O)[C@H]3C[C@H](Oc4cccc5cccnc45)C3)C2)C1` (mixture of isomers) [Example 170, Racemic (trans)-N-(6-(2-Hydroxypropan-2-yl)spiro[3.3]heptan-2-yl)-3-(quinolin-8-yloxy)cyclobutanecarboxamide], for which the IC50 is 0.01 to 0.0794 µM.

Consider `O=C(NC1CCc2ccccc21)[C@H]1C[C@H](Oc2cccc3cccnc23)C1` (mixture of isomers) [Example 212, Racemic (trans)-N-(2,3-Dihydro-1H-inden-1-yl)-3-(quinolin-8-yloxy)cyclobutanecarboxamide], for which the IC50 is 0.01 to 0.0794 µM.

In the case of `CCOC(=O)c1csc(NC(=O)[C@H]2C[C@H](Oc3cc(F)ccc3OC(F)F)C2)n1` [Example 31, ethyl 2-((trans)-3-(2-(difluoromethoxy)-5-fluorophenoxy)cyclobutanecarboxamido)thiazole-4-carboxylate], the IC50 is < 0.01 µM.

For `CC(=O)c1csc(NC(=O)[C@H]2C[C@H](Oc3cc(F)ccc3OC(F)F)C2)n1` [Example 35, (trans)-N-(4-Acetylthiazol-2-yl)-3-(2-(difluoromethoxy)-5-fluorophenoxy)cyclobutanecarboxamide], the IC50 is < 0.01 µM.

For the compound `COc1ccc(F)cc1O[C@H]1C[C@H](C(=O)Nc2nc(C(=O)N(C)C)co2)C1` [Example 158, 2-((trans)-3-(5-Fluoro-2-methoxyphenoxy)cyclobutanecarboxamido)-N,N-dimethyloxazole-4-carboxamide], the IC50 is 0.01 to 0.0794 µM.

Regarding `CC(C)(O)[C@H]1CC[C@H](NC(=O)[C@H]2C[C@H](Oc3cccc(Cl)c3)C2)CC1` [Example 288, (trans)-3-(3-Chlorophenoxy)-N-((trans)-4-(2-hydroxypropan-2-yl)cyclohexyl)cyclobutanecarboxamide], the IC50 is 0.1 to 1 µM.

For the origin of these results see patent publication US11053234B2 (GlaxoSmithKline Intellectual Property Development Limited, priority 2016, dated 2021).
